Article PMC12114840, “Exploring the Anticancer Properties of 1,2,3-Triazole-Substituted Andrographolide Derivatives” (Pharmaceuticals, 2025)

Experiments:
[1] = system: MCF-7 cells (breast adenocarcinoma); experiment: Sulforhodamine B (SRB) antiproliferative assay, MCF-7; assay type: cell-based; conditions: Homo sapiens, MCF7, MCF-7, 48 h, mean ± SEM of four to six independent experiments
Description: (§1) The antiproliferative properties of andrographolide and all prepared derivatives (2–26) were evaluated against a panel of different cancer cell lines, including human pancreatic ductal adenocarcinoma (PANC-1), colorectal adenocarcinoma (HCT116), melanoma (A375), breast adenocarcinoma (MCF-7) and a non-tumorigenic colon (CCD-18Co) cell line using the sulforhodamine B assay.
(§2) Human breast adenocarcinoma MCF-7, pancreatic ductal adenocarcinoma PANC-1, melanoma A375, and non-tumorigenic colon CCD-18Co cell lines were purchased from ATCC (Rockville, MD, USA). Human colorectal adenocarcinoma HCT116 cells were kindly provided by B. Vogelstein (The Johns Hopkins Kimmel Cancer Center, Baltimore, MD, USA). Tumor cells were routinely cultured in RPMI-1640 medium with UltraGlutamine from Biowest (VWR, Carnaxide, Portugal) supplemented with 10% fetal bovine serum (FBS) from Biowest (VWR, Carnaxide, Portugal), except for the PANC-1 cells, which were grown in DMEM (4.5 g/L glucose) with stable L-glutamine and sodium pyruvate and supplemented with 10% FBS. The non-tumorigenic CCD-18Co cells were cultured in EMEM (Lonza, VWR, Carnaxide, Portugal), supplemented with 10% FBS. All cells were incubated at 37 °C in a humidified atmosphere of 5% CO2. Routine mycoplasma testing was performed using the MycoAlert™ PLUS mycoplasma detection kit (Lonza).
(§3) For the evaluation of the compound effect on cell proliferation, human cell lines were seeded in 96-well plates at a density of 5.0 × 10^3 (HCT116, MCF-7, PANC-1, A375, and CCD-18Co) cells per well, for 24 h. Cells were then treated with serial dilutions of the compound (ranging from 0.63 to 30 µM), for an additional 48 h incubation period. The growth inhibitory effects were assessed by SRB assay, as described in [58], and the half-maximal inhibitory concentration (IC50 values) were determined for each cell line using the GraphPad Prism software version 7.0 (La Jolla, CA, USA). Culture medium containing a maximum of 0.05% dimethyl sulfoxide (DMSO) was used as negative control.

[2] = system: PANC-1 cells (pancreatic ductal adenocarcinoma); experiment: Sulforhodamine B (SRB) antiproliferative assay, PANC-1; assay type: cell-based, human; conditions: Homo sapiens; PANC-1, 48 h, SRB; mean ± SEM of four to six independent experiments
Description: as §1, §2, §3

[3] = system: HCT116 cells (colorectal adenocarcinoma); experiment: Sulforhodamine B (SRB) antiproliferative assay, HCT116; assay type: cell-based; conditions: Homo sapiens, HCT-116, HCT116, 48 h, mean ± SEM of four to six independent experiments
Description: as §1, §2, §3

[4] = system: CCD-18Co cells (non-tumorigenic colon); experiment: Sulforhodamine B (SRB) antiproliferative assay, CCD-18Co; assay type: cell-based; conditions: Homo sapiens, CCD-18Co non-tumorigenic, 48 h, mean ± SEM of four to six independent experiments
Description: as §1, §2, §3

A375 cells (melanoma) = experiment: Sulforhodamine B (SRB) antiproliferative assay, A375; assay type: cell-based; conditions: Homo sapiens, A-375, A375, 48 h, mean ± SEM of four to six independent experiments
Description: as §1, §2, §3

Row | Compound | IC50 [1] | IC50 [2] | IC50 [3] | IC50 [4] | IC50 (A375 cells (melanoma))
1 | C=C1CC[C@@H]2[C@](C)(COC(C)=O)[C@H](OC(C)=O)CC[C@@]2(C)[C@@H]1C[C@H](C1=CCOC1=O)n1cc(-c2ccc(-c3ccccc3)cc2)nn1 [Compound 20] | 28 ± 2 µM | 3 ± 1.1 µM | 1.4 ± 0.3 µM | 3.5 ± 0.3 µM | 3.3 ± 1.3 µM
2 | C=C1CC[C@@H]2[C@](C)(CO)[C@H](O)CC[C@@]2(C)[C@@H]1C/C=C1/C(=O)OC[C@H]1O [Compound 1, andrographolide] | 13.5 ± 0.5 µM | 3.1 ± 0.1 µM | 5.1 ± 1.5 µM | 6.2 ± 1.1 µM | 4 ± 0.1 µM
3 | C=C1CC[C@@H]2[C@](C)(COC(C)=O)[C@H](OC(C)=O)CC[C@@]2(C)[C@@H]1C[C@H](N=[N+]=[N-])C1=CCOC1=O [Compound 4, (12S)-azido-3,19-diacetoxy-14-deoxy-andrographolide] | 6.9 ± 0.8 µM | 3 ± 0.2 µM | 1.5 ± 0.2 µM | 2.2 ± 0.8 µM | 1.2 ± 0.2 µM
4 | C=C1CC[C@@H]2[C@](C)(COC(C)=O)[C@H](OC(C)=O)CC[C@@]2(C)[C@@H]1C[C@@H](C1=CCOC1=O)n1cc(-c2ccsc2)nn1 [Compound 26, (12S)-4-(3-thiophene)-1,2,3-triazole-3,19-diacetoxy-14-deoxy-andrographolide] | 6.1 ± 0.2 µM | 4.3 ± 1.4 µM | 1.3 ± 0.1 µM | 6.2 ± 1.4 µM | 1.4 ± 0.1 µM
5 | C=C1CC[C@@H]2[C@](C)(COC(C)=O)[C@H](OC(C)=O)CC[C@@]2(C)[C@@H]1C[C@H](C1=CCOC1=O)n1cc(Cc2ccccc2)nn1 [Compound 8, (12R)-4-benzyl-1,2,3-triazole-3,19-diacetoxy-14-deoxy-andrographolide] | 15.5 ± 0.5 µM | 3.1 ± 0.4 µM | 2.1 ± 0.6 µM | 8.7 ± 1.9 µM | 23 ± 2 µM
